Data: ChEMBL document CHEMBL1909046, “DrugMatrix in vitro pharmacology data”

What was measured:
Cytochrome P450 2C19 = Cytochrome P450 2C19 (Homo sapiens, UniProt P33261); details: bti-tn-5b1-4; also: in other assays of this panel Not Active means under 50% inhibition at 10 µM
[1] = target: T1, Type-2 angiotensin II receptor (Homo sapiens, UniProt P50052); type: cell-based; details: cho-k1; also: in other assays of this panel Not Active means under 50% inhibition at 10 µM
T1 sequence (P50052 whole entry): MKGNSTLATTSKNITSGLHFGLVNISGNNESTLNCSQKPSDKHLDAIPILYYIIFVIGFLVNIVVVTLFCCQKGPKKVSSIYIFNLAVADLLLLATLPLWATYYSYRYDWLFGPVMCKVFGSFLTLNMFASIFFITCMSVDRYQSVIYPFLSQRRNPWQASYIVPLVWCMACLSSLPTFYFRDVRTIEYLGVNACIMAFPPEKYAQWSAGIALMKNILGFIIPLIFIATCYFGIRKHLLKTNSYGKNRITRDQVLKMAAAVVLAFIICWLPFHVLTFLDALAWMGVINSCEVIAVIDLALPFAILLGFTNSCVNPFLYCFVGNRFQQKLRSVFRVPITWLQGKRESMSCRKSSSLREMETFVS

[2] = DRUGMATRIX: Glutamate, NMDA, Phencyclidine radioligand binding (ligand: [3H] TCP); type: cell membranes, Rattus norvegicus, Wistar, Cerebral cortex, Membrane; details: Not Active = under 50% inhibition at 10 µM
Histamine H2 receptor = Histamine H2 receptor (Homo sapiens, UniProt P25021); type: cell membranes, CHO-K1, Membrane; details: cho-k1; also: in other assays of this panel Not Active means under 50% inhibition at 10 µM
Sequence of Histamine H2 receptor (P25021 whole entry): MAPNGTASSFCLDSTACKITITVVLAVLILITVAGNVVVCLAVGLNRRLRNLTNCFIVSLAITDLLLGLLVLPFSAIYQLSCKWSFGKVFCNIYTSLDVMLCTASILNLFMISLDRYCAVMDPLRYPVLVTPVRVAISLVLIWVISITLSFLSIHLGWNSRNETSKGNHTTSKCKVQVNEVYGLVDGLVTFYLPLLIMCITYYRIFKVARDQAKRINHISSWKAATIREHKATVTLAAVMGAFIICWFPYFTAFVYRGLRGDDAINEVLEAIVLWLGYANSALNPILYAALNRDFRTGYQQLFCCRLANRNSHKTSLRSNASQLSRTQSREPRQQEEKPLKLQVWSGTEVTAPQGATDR

Melanocortin receptor 3 = Melanocortin receptor 3 (Homo sapiens, UniProt P41968); type: cell membranes, HEK293, Membrane; details: hek293; also: in other assays of this panel Not Active means under 50% inhibition at 10 µM
Sequence of Melanocortin receptor 3 (P41968 whole entry): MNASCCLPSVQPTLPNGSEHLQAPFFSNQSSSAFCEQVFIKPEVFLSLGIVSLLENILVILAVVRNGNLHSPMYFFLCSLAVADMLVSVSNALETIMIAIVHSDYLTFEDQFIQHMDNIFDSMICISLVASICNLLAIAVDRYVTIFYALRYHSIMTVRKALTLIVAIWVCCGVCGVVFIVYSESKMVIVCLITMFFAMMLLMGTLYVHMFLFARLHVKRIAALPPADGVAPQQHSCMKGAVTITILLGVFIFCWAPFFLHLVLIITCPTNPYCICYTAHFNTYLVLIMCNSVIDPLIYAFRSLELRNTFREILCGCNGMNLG

[3] = target: Sigma non-opioid intracellular receptor 1 (Homo sapiens, UniProt Q99720); experiment: DRUGMATRIX: Sigma1 radioligand binding (ligand: [3H] Haloperidol); type: cell membranes, Jurkat, Membrane; details: Not Active = under 50% inhibition at 10 µM
Sequence of Sigma non-opioid intracellular receptor 1 (Q99720 whole entry): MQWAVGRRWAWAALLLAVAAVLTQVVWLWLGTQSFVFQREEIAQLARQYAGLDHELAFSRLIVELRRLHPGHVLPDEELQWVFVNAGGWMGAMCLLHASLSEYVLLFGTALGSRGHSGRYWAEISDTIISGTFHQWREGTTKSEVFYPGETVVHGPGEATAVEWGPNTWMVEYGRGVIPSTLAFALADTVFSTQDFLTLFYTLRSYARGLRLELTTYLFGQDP

[4] = target: Delta-type opioid receptor (Homo sapiens, UniProt P41143); type: cell membranes, Membrane; details: hek293; also: in other assays of this panel Not Active means under 50% inhibition at 10 µM
Sequence of Delta-type opioid receptor (P41143 whole entry): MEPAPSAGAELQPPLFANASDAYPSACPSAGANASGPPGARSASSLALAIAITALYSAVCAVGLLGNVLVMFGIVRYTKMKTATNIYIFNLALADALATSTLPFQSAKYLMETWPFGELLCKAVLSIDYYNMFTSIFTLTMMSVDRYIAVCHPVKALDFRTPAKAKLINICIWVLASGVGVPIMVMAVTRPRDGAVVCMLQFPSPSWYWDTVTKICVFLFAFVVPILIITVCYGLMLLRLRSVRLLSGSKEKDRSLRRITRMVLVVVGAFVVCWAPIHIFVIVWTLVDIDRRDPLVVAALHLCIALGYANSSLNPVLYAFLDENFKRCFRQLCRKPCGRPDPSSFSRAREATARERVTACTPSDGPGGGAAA

Sequence of Cytochrome P450 2C19 (P33261 whole entry): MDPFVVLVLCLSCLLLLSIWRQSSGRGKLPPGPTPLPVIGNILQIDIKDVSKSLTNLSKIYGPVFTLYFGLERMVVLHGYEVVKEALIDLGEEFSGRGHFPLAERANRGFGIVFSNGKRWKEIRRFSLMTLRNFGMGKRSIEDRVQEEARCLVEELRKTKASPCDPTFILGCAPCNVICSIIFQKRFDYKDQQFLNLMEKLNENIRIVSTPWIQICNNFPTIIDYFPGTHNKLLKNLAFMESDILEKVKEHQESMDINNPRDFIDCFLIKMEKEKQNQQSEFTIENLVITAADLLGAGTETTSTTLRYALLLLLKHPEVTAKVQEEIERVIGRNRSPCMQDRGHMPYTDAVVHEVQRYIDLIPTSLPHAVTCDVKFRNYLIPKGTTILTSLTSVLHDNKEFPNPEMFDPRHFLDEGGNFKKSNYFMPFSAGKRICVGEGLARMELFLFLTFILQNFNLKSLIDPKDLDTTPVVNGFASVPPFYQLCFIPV

Row | Compound | IC50 (Cytochrome P450 2C19) | Ki (Cytochrome P450 2C19) | IC50 [1] | IC50 [2] | Ki [2] | IC50 (Histamine H2 receptor) | IC50 (Melanocortin receptor 3) | IC50 ([3]; jurkat) | IC50 [4] | IC50 ([3]; read-out: IC50) [µM] | Ki ([3]; read-out: Ki) [µM] | Ki [1] | Ki (Histamine H2 receptor) | Ki (Melanocortin receptor 3) | Ki ([3]; jurkat) | Ki [4]
1 | C#C[C@]1(OC(C)=O)CC[C@H]2[C@@H]3CCC4=C[C@@H](OC(C)=O)CC[C@@H]4[C@H]3CC[C@@]21C [ETHYNODIOL DIACETATE] | Not Active | Not Active | Not Active | Not Active | Not Active | Not Active | Not Active | Not Active | Not Active |  |  |  |  |  |  | 
2 | C=CCc1ccc(O)c(OC)c1 [EUGENOL] | Not Active | Not Active | Not Active | Not Active | Not Active | Not Active | Not Active | Not Active | Not Active |  |  |  |  |  |  | 
3 | CC(C(=O)O)c1cccc(Oc2ccccc2)c1 (centres undefined) [FENOPROFEN] | Not Active | Not Active | Not Active | Not Active | Not Active | Not Active | Not Active | Not Active | Not Active |  |  |  |  |  |  | 
4 | Nc1ccn([C@@H]2O[C@H](CO)[C@@H](O)C2(F)F)c(=O)n1 [GEMCITABINE] | Not Active | Not Active | Not Active | Not Active | Not Active | Not Active | Not Active | Not Active | Not Active |  |  |  |  |  |  | 
5 | N=C(N)NC(=O)Cc1c(Cl)cccc1Cl [GUANFACINE] | Not Active | Not Active | Not Active | Not Active | Not Active | Not Active | Not Active | Not Active | Not Active |  |  |  |  |  |  | 
6 | NNc1nncc2ccccc12 [HYDRALAZINE] | Not Active | Not Active | Not Active | Not Active | Not Active | Not Active | Not Active | Not Active | Not Active |  |  |  |  |  |  | 
7 | CC(C)NNC(=O)c1ccncc1 [IPRONIAZID] | Not Active | Not Active | Not Active | Not Active | Not Active | Not Active | Not Active | Not Active | Not Active |  |  |  |  |  |  | 
8 | O=c1cc(N2CCOCC2)oc2c(-c3ccccc3)cccc12 [LY-294002] | Not Active | Not Active | Not Active | Not Active | Not Active | Not Active | Not Active | Not Active | Not Active |  |  |  |  |  |  | 
9 | NC(=O)C[S+]([O-])C(c1ccccc1)c1ccccc1 (centres undefined) [MODAFINIL] | Not Active | Not Active | Not Active | Not Active | Not Active | Not Active | Not Active | Not Active | Not Active |  |  |  |  |  |  | 
10 | CCN(CC)CCOCCC1=CCC2CC1C2(C)C (centres undefined) [MYRTECAINE] | Not Active | Not Active | Not Active | Not Active | Not Active | Not Active | Not Active | Not Active | Not Active |  |  |  |  |  |  | 
11 | O=C(O)c1cccnc1Nc1cccc(C(F)(F)F)c1 [NIFLUMIC ACID] | Not Active | Not Active | Not Active | Not Active | Not Active | Not Active | Not Active | Not Active | Not Active |  |  |  |  |  |  | 
12 | COC(=O)Nc1nc2ccc(C(=O)c3cccs3)cc2[nH]1 [NOCODAZOLE] | Not Active | Not Active | Not Active | Not Active | Not Active | Not Active | Not Active | Not Active | Not Active |  |  |  |  |  |  | 
13 | C#CC1(O)CC[C@H]2[C@@H]3CCC4=CC(=O)CC[C@@H]4[C@H]3CC[C@@]21CC (some centres undefined) [NORGESTREL] | Not Active | Not Active | Not Active | Not Active | Not Active | Not Active | Not Active | Not Active | Not Active |  |  |  |  |  |  | 
14 | COC(=O)Nc1nc2ccc([S+]([O-])c3ccccc3)cc2[nH]1 (centres undefined) [OXFENDAZOLE] | Not Active | Not Active | Not Active | Not Active | Not Active | Not Active | Not Active | Not Active | Not Active |  |  |  |  |  |  | 
15 | C[n+]1ccc(-c2cc[n+](C)cc2)cc1.[Cl-].[Cl-] [PARAQUAT DICHLORIDE] | Not Active | Not Active | Not Active | Not Active | Not Active | Not Active | Not Active | Not Active | Not Active |  |  |  |  |  |  | 
16 | CCn1cc(C(=O)O)c(=O)c2cnc(N3CCCC3)nc21 [PIROMIDIC ACID] | Not Active | Not Active | Not Active | Not Active | Not Active | Not Active | Not Active | Not Active | Not Active |  |  |  |  |  |  | 
17 | C[n+]1ccccc1/C=N/O.[Cl-] [PRALIDOXIME CHLORIDE] | Not Active | Not Active | Not Active | Not Active | Not Active | Not Active | Not Active | Not Active | Not Active |  |  |  |  |  |  | 
18 | COc1cc2nc(N3CCN(C(=O)c4ccco4)CC3)nc(N)c2cc1OC [PRAZOSIN] | Not Active | Not Active | Not Active | Not Active | Not Active | Not Active | Not Active | Not Active | Not Active |  |  |  |  |  |  | 
19 | C[C@]12C=CC(=O)C=C1CC[C@@H]1[C@@H]2[C@@H](O)C[C@@]2(C)[C@H]1CC[C@]2(O)C(=O)CO [PREDNISOLONE] | Not Active | Not Active | Not Active | Not Active | Not Active | Not Active | Not Active | Not Active | Not Active |  |  |  |  |  |  | 
20 | CC(=O)[C@H]1[C@H](C#N)C[C@H]2[C@@H]3CC=C4C[C@@H](O)CC[C@]4(C)[C@H]3CC[C@@]21C [PREGNENOLONE CARBONITRILE] | Not Active | Not Active | Not Active | Not Active | Not Active | Not Active | Not Active |  | Not Active | 21.3 | 8.95 |  |  |  |  | 
21 | CCCN(CCC)S(=O)(=O)c1ccc(C(=O)O)cc1 [PROBENECID] | Not Active | Not Active | Not Active | Not Active | Not Active | Not Active | Not Active | Not Active | Not Active |  |  |  |  |  |  | 
22 | CCCOc1ccc(C(=O)OCCN(CC)CC)cc1N [PROPARACAINE] | Not Active | Not Active | Not Active | Not Active | Not Active | Not Active | Not Active |  | Not Active | 0.238 | 0.1 |  |  |  |  | 
23 | C[C@@H]1O[C@@H](O[C@@H]2C=C3CC[C@@H]4[C@H](CC[C@]5(C)[C@@H](c6ccc(=O)oc6)CC[C@]45O)[C@@]3(C)CC2)[C@H](O)[C@H](O)[C@H]1O [PROSCILLARIDIN] | Not Active | Not Active | Not Active | Not Active | Not Active | Not Active | Not Active | Not Active | Not Active |  |  |  |  |  |  | 
24 | Oc1cccc(O)c1O [PYROGALLOL] | Not Active | Not Active | Not Active | Not Active | Not Active | Not Active | Not Active | Not Active | Not Active |  |  |  |  |  |  | 
25 | AURANOFIN | Not Active | Not Active | Not Active | Not Active | Not Active | Not Active | Not Active | Not Active | Not Active |  |  | Not Active | Not Active | Not Active | Not Active | Not Active
26 | GADOPENTETATE DIMEGLUMINE | Not Active | Not Active | Not Active | Not Active | Not Active | Not Active | Not Active | Not Active | Not Active |  |  | Not Active | Not Active | Not Active | Not Active | Not Active
27 | GENTAMICIN | Not Active | Not Active | Not Active | Not Active | Not Active | Not Active | Not Active | Not Active | Not Active |  |  | Not Active | Not Active | Not Active | Not Active | Not Active
28 | GRAMICIDIN | Not Active | Not Active | Not Active | Not Active | Not Active | Not Active | Not Active | Not Active | Not Active |  |  | Not Active | Not Active | Not Active | Not Active | Not Active
